From patent publication US9856480B2, “Dnazyme for silencing the expression of EGFR” (DCB-USA LLC, priority 2013, dated 2018)
Strand notation (5' to 3'): a small letter for the sugar, then the base; units joined by * are phosphorothioate-linked, units joined directly phosphodiester-linked; [ ] holds rarer units or linkages, { } end groups; capitals alone tell only the bases. d = 2'-deoxy (DNA)

Legend:
Format in all cases: cell-based, human
wild-type EGFR = test: Western immunoblotting of EGFR expression and downstream signaling in wild-type EGFR cell lines; settings: A549 and CL1-5 cells, 100 nM
Experimental: (§1) A549, CL1-5, H1975, or CL97 was seeded onto 6-well at 3×10^5 cells/well and cultured overnight. Then, cells were separately treated with 100 nM DzControl or DzT790M-1 with lipofectamine 2000 (Invitrogen). The transfected A549 and CL1-5 cells were serum-starved for 24 h and treated with 100 ng/ml of EGF at 37° C. for 15 min. 72 h after transfection, cell were collected for analysis. Cells were washed twice by ice-cold PBS and then total protein was extracted by RIPA buffer with protease inhibitor (Roche). 50 μg of total protein from the supernatants were boiled for 5 min at 95° C. The samples were resolved on 10% SDS-PAGE gel and transferred onto nitrocellulose membranes. EGFR expression and downstream signaling were detected by using primary antibodies specific to human pEGFR(Y1068) (Cell signaling), tEGFR (Santa Cruz), pSTAT3 (Y705) (Cell signaling), tSTAT3 (Cell signaling), pAKT (5473)(Cell signaling), tAKT (Santa Cruz), pERK (T202/Y204) (Cell signaling), tERK (Santa Cruz), and cleaved PARP (Cell signaling) at 1:1000 dilution and β-actin (Santa Cruz) at 1:10000 dilution, respectively. Secondary antibodies against rabbit IgG or mouse IgG was used at 1:5000 dilution. Protein bands on membrane were visualized by exposure to the chemiluminescence substrate.
EGFR belongs to receptor tyrosine kinases. The binding of its extracellular ligands triggers receptor dimerization, tyrosine residues phosphorylation, and downstream signaling activation including signal transducer and activator of transcription 3 (STAT3), Akt, extracellular signal regulated kinases (ERK), and others. To examine the effects of DzT790M on protein expression level of EGFR and its downstream signaling, western immunoblotting was performed on DzT790M transfected cells. A549, CL1-5, H1975, or CL97 was seeded onto 6-well at 3×10^5 cells/well and cultured overnight. Then, cells were separately treated with 100 nM DzControl or DzT790M-1 with lipofectamine 2000 (Invitrogen). The transfected A549 and CL1-5 cells were serum-starved for 24 h and treated with 100 ng/ml of EGF at 37° C. for 15 min. 72 h after transfection, cell were collected for analysis. Cells were washed twice by ice-cold PBS and then total protein was extracted by RIPA buffer with protease inhibitor (Roche). […] Also, activation of downstream STAT3, AKT, and ERK signaling after EGF treatment were not inhibited by DzT790M-1 or DzT790M-2 transfection.
CL1-5 (EGFR wild-type) or H1975 (EGFR T790M) were seeded onto 6-well at 3×10^5 cells/well and cultured overnight. […] The transfected CL1-5 cells were serum-starved for 24 h and treated with 100 ng/ml of EGF at 37° C. for 15 min. 72 h after transfection, cells were collected for western blotting analysis following the above mentioned procedure. […]

cleaved PARP = test: Immunoblotting against cleaved form of PARP; settings: H1975 and CL97 cells; 100 nM
Experimental: as §1, with “Secondary antibodies against rabbit IgG or mouse IgG was used at 1:5000 dilution. Protein bands on membrane were visualized by exposure to the chemiluminescence substrate.” left out
EGFR and downstream signaling pathway regulates important cell functions including cell proliferation and survival. In order to examine functional effects of DzT790M-1 on cell survival, the number of cells was counted after DzControl or DzT790M-1 transfection respectively. […]

CL97 cells = test: Apoptosis assay (annexin V and PI, flow cytometry); settings: 100 nM, 48 h
Experimental: (§2) H1975 or CL97 was seeded onto 10-cm dish and cultured overnight. Then, cells were separately treated with 100 nM DzControl or DzT790M-1 with lipofectamine 2000 (Invitrogen). After 48 h, cells were collected, double stained by annexin V and PI, and analyzed by flow cytometry following the protocol of Dead cell apoptosis kit from manufacturer (Invitrogen).

H1975 cells = test: Apoptosis assay (annexin V and PI, flow cytometry); settings: 100 nM, 48 h
Experimental: as §2

H1975 cells (EGFR T790M) = test: Cell viability assay (MTT); settings: 100 nM by lipofectamine transfection, 72 h

## DzT790M-1: 10-23 DNAzyme against EGFR T790M mRNA, arms 10/4, phosphorothioate ends: AGCTGCATGAGGCTAGCTACAACGAGAGC (DNA dA*dGdCdTdGdCdAdTdGdAdGdGdCdTdAdGdCdTdAdCdAdAdCdGdAdGdAdG*dC; further chemistry not fully specified)
wild-type EGFR; 100 ng/ml EGF 15 min
  activation of downstream STAT3, AKT, and ERK signaling after EGF treatment: not inhibited
wild-type EGFR; 72 h after transfection
  protein level of EGFR compared to DzControl group: did not decreased
Cleaved PARP
  level of cleaved PARP compared to DzControl treated group: increased level
CL97 cells
  percentage of apoptotic cells in whole cell population: 27.4%
  percentage of dead cells in whole cell population: 25.1%
H1975 cells
  apoptotic cells: 18.6%
  dead cells (annexin V and PI double positive): 32.6%
H1975 cells (EGFR T790M)
  anti-proliferation effect: 50%
